Measurements as given in patent publication US8952024B2, “Herbicidal pyrimidone derivatives” (E I du Pont de Nemours and Company, priority 2009, dated 2015).

How the values were obtained:
Type in all cases: in vivo
[1] = test system: barnyardgrass (Echinochloa crus-galli); assay: Test A pre-/postemergence plant response
Procedure, shortened: (§1)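 Greenhouse trial, ~10 days. Soil (loam/sand) sprayed preemergence after seeding; emerged plants (1–2 leaf, 2–10 cm) sprayed postemergence in parallel. Response = visual injury vs untreated control, 0–100.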

corn (Zea mays) = assay: Test A pre-/postemergence plant response
Procedure, shortened: as §1

[2] = test system: giant foxtail (Setaria faberii); assay: Test A pre-/postemergence plant response
Procedure, shortened: as §1

[3] = test system: large crabgrass (Digitaria sanguinalis); assay: Test A pre-/postemergence plant response
Procedure, shortened: as §1

[4] = test system: morningglory (Ipomoea spp.); assay: Test A pre-/postemergence plant response
Procedure, shortened: as §1

[5] = test system: pigweed (Amaranthus retroflexus); assay: Test A pre-/postemergence plant response
Procedure, shortened: as §1

[6] = test system: velvetleaf (Abutilon theophrasti); assay: Test A pre-/postemergence plant response
Procedure, shortened: as §1

[7] = test system: wheat (Triticum aestivum); assay: Test A pre-/postemergence plant response
Procedure, shortened: as §1

[8] = test system: winter barley (Hordeum vulgare); assay: Test B postemergence plant response; conditions: for Barley plant response rating: scale 0 to 100
Procedure, shortened: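 Plants at the 1- to 4-leaf stage (2 to 18 cm tall), grown in pots of peat moss/vermiculite medium with wetting agent and starter nutrients, received postemergence applications of test chemicals. After 13 to 15 days in a greenhouse, injury was rated visually against untreated controls on a 0 (no effect) to 100 (complete control) scale.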

[9] = test system: barnyardgrass (Echinochloa crus-galli); assay: Test B flooded paddy test; conditions: for Plant response rating, Flood, Barnyardgrass: 250 g ai/ha, flooded paddy test, visual rating on 0 to 100 scale (0 no effect, 100 complete control) after 13 to 15 days; for Plant response rating, Barnyardgrass: Flood (flooded paddy test), 13 to 15 days
Procedure, shortened: (§2)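 Greenhouse-held for 13 to 15 days, treated pots were compared visually with controls and scored 0–100 (0, no effect). Treatment had been made into paddy water kept at 3 cm above the soil, with plants at the 2-leaf stage.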

[10] = test system: ducksalad (Heteranthera limosa); assay: Test B flooded paddy test; conditions: for Plant response rating, Flood, Ducksalad: 250 g ai/ha, flooded paddy test, visual rating on 0 to 100 scale (0 no effect, 100 complete control) after 13 to 15 days; for Plant response rating, Ducksalad: Flood (flooded paddy test), 13 to 15 days
Procedure, shortened: as §2

rice (Oryza sativa) = assay: Test B flooded paddy test; conditions: for Plant response rating, Flood, Rice: 250 g ai/ha, flooded paddy test, visual rating on 0 to 100 scale (0 no effect, 100 complete control) after 13 to 15 days; for Plant response rating, Rice: Flood (flooded paddy test), 13 to 15 days
Procedure, shortened: as §2

[11] = test system: umbrella sedge (Cyperus difformis); assay: Test B flooded paddy test; conditions: for Plant response rating, Flood, Sedge, Umbrella: 250 g ai/ha, flooded paddy test, visual rating on 0 to 100 scale (0 no effect, 100 complete control) after 13 to 15 days; for Plant response rating, Sedge, Umbrella: Flood (flooded paddy test), 13 to 15 days
Procedure, shortened: as §2

[12] = Postemergence, 125 g ai/ha, 0 to 100 scale where 0 is no effect and 100 is complete control
[13] = Postemergence, 500 g ai/ha, 0 to 100 scale, 0 = no effect, 100 = complete control, approx. ten days
[14] = Preemergence, 125 g ai/ha, 0 to 100 scale, 0 = no effect, 100 = complete control
[15] = Preemergence, 500 g ai/ha, visual injury, 0 to 100 scale (0 no effect, 100 complete control), approx. ten days
[16] = Postemergence, 125 g ai/ha, visual rating after 13 to 15 days, scale 0 (no effect) to 100 (complete control)
[17] = 62 g ai/ha, scale of 0 to 100 where 0 is no effect and 100 is complete control
[18] = 125 g ai/ha, scale 0 to 100, 0 is no effect, 100 is complete control
[19] = Flood, 31 g ai/ha, scale 0 to 100 (0 no effect, 100 complete control)
[20] = Postemergence, 125 g ai/ha, visual injury, 0 to 100 scale (0 no effect, 100 complete control), approx. ten days
[21] = Postemergence, 31 g ai/ha, scale 0 to 100 (0 no effect, 100 complete control)
[22] = Postemergence, 62 g ai/ha, scale 0 (no effect) to 100 (complete control), 13 to 15 days
[23] = 31 g ai/ha, scale of 0 to 100 where 0 is no effect and 100 is complete control
[24] = 62 g ai/ha, scale 0 to 100, 0 is no effect, 100 is complete control

CCCn1c(-c2ccsc2)ncc(C(=O)C2=C(O)CCCC2=O)c1=O [Compound 93]
Plant response rating, Barnyardgrass [1, 12]: 90 | Plant response rating, Barnyardgrass [1, 13]: 90 | Plant response rating, Barnyardgrass [1, 14]: 80 | Plant response rating, Barnyardgrass [1, 15]: 100 | Plant response rating, Corn (corn (Zea mays); [12]): 10 | Plant response rating, Corn (corn (Zea mays); [13]): 30 | Plant response rating, Corn (corn (Zea mays); [14]): 0 | Plant response rating, Corn (corn (Zea mays); [15]): 0 | Plant response rating, Foxtail, Giant [2, 12]: 80 | Plant response rating, Foxtail, Giant [2, 13]: 90 | Plant response rating, Foxtail, Giant [2, 14]: 60 | Plant response rating, Foxtail, Giant [2, 15]: 80 | Plant response rating, Crabgrass, Large [3, 12]: 90 | Plant response rating, Crabgrass, Large [3, 13]: 100 | Plant response rating, Crabgrass, Large [3, 14]: 90 | Plant response rating, Crabgrass, Large [3, 15]: 100 | Plant response rating, Morningglory [4, 12]: 100 | Plant response rating, Morningglory [4, 13]: 100 | Plant response rating, Morningglory [4, 14]: 80 | Plant response rating, Morningglory [4, 15]: 90 | Plant response rating, Pigweed [5, 12]: 100 | Plant response rating, Pigweed [5, 13]: 100 | Plant response rating, Pigweed [5, 14]: 100 | Plant response rating, Pigweed [5, 15]: 100 | Plant response rating, Velvetleaf [6, 12]: 100 | Plant response rating, Velvetleaf [6, 13]: 100 | Plant response rating, Velvetleaf [6, 14]: 90 | Plant response rating, Velvetleaf [6, 15]: 100 | Plant response rating, Wheat [7, 12]: 0 | Plant response rating, Wheat [7, 13]: 0 | Plant response rating, Wheat [7, 14]: 0 | Plant response rating, Wheat [7, 15]: 0 | Plant response rating, Barley ([8]; 31 g ai/ha, postemergence, scale 0 to 100, 0 is no effect, 100 is complete control): 0 | Barley plant response rating (0 to 100 scale) ([8]; 62 g ai/ha, postemergence, 0 is no effect, 100 is complete control, 13 to 15 days): 0 | Plant response rating, Barley [8, 16]: 5 | Plant response rating, Barley ([8]; Postemergence, 250 g ai/ha, scale 0 to 100 (0 no effect, 100 complete control)): 5 | Plant response rating, Flood, Barnyardgrass [9]: 85 | Plant response rating, Barnyardgrass [9, 17]: 60 | Plant response rating, Barnyardgrass [9, 18]: 75 | Barnyardgrass plant response rating [9, 19]: 30 | Plant response rating, Flood, Ducksalad [10]: 80 | Plant response rating, Ducksalad [10, 17]: 55 | Plant response rating, Ducksalad [10, 18]: 80 | Ducksalad plant response rating [10, 19]: 40 | Plant response rating, Flood, Rice (rice (Oryza sativa)): 45 | Plant response rating, Rice (rice (Oryza sativa); [17]): 15 | Plant response rating, Rice (rice (Oryza sativa); [18]): 20 | Rice plant response rating (rice (Oryza sativa); [19]): 0 | Plant response rating, Flood, Sedge, Umbrella [11]: 90 | Plant response rating, Sedge, Umbrella [11, 17]: 75 | Plant response rating, Sedge, Umbrella [11, 18]: 80 | Sedge, Umbrella plant response rating [11, 19]: 70

O=C1CCCC(O)=C1C(=O)c1cnc(-c2ccccc2)n(-c2ccccc2Br)c1=O [Compound 37]
Barnyardgrass plant response rating [1, 20]: 50 | Plant response rating, Barnyardgrass [1, 13]: 90 | Plant response rating, Barnyardgrass [1, 14]: 0 | Plant response rating, Barnyardgrass [1, 15]: 30 | Corn plant response rating (corn (Zea mays); [20]): 0 | Plant response rating, Corn (corn (Zea mays); [13]): 40 | Plant response rating, Corn (corn (Zea mays); [14]): 0 | Plant response rating, Corn (corn (Zea mays); [15]): 0 | Foxtail, Giant plant response rating [2, 20]: 70 | Plant response rating, Foxtail, Giant [2, 13]: 90 | Plant response rating, Foxtail, Giant [2, 14]: 10 | Plant response rating, Foxtail, Giant [2, 15]: 50 | Crabgrass, Large plant response rating [3, 20]: 70 | Plant response rating, Crabgrass, Large [3, 13]: 100 | Plant response rating, Crabgrass, Large [3, 14]: 10 | Plant response rating, Crabgrass, Large [3, 15]: 50 | Morningglory plant response rating [4, 20]: 80 | Plant response rating, Morningglory [4, 13]: 100 | Plant response rating, Morningglory [4, 14]: 0 | Plant response rating, Morningglory [4, 15]: 30 | Pigweed plant response rating [5, 20]: 100 | Plant response rating, Pigweed [5, 13]: 100 | Plant response rating, Pigweed [5, 14]: 50 | Plant response rating, Pigweed [5, 15]: 100 | Velvetleaf plant response rating [6, 20]: 100 | Plant response rating, Velvetleaf [6, 13]: 100 | Plant response rating, Velvetleaf [6, 14]: 50 | Plant response rating, Velvetleaf [6, 15]: 90 | Wheat plant response rating [7, 20]: 0 | Plant response rating, Wheat [7, 13]: 0 | Plant response rating, Wheat [7, 14]: 0 | Plant response rating, Wheat [7, 15]: 0 | Plant response rating, Barley [8, 21]: 0 | Plant response rating, Barley [8, 22]: 0 | Plant response rating, Barley [8, 16]: 0 | Barley plant response rating ([8]; Postemergence, 250 g ai/ha): 0 | Plant response rating, Flood, Barnyardgrass [9]: 0 | Plant response rating, Barnyardgrass [9, 23]: 0 | Plant response rating, Barnyardgrass [9, 24]: 0 | Plant response rating, Barnyardgrass [9, 18]: 0 | Plant response rating, Flood, Ducksalad [10]: 60 | Plant response rating, Ducksalad [10, 23]: 0 | Plant response rating, Ducksalad [10, 24]: 30 | Plant response rating, Ducksalad [10, 18]: 50 | Plant response rating, Flood, Rice (rice (Oryza sativa)): 20 | Plant response rating, Rice (rice (Oryza sativa); [23]): 0 | Plant response rating, Rice (rice (Oryza sativa); [24]): 0 | Plant response rating, Rice (rice (Oryza sativa); [18]): 0 | Plant response rating, Flood, Sedge, Umbrella [11]: 40 | Plant response rating, Sedge, Umbrella [11, 23]: 0 | Plant response rating, Sedge, Umbrella [11, 24]: 20 | Plant response rating, Sedge, Umbrella [11, 18]: 30

5-[(1-ethyl-5-hydroxy-1H-pyrazol-4-yl)carbonyl]-2-phenyl-3-(phenylmethyl)-4(3H)-pyrimidinone [Compound 20]
Barnyardgrass plant response rating [1, 20]: 50 | Plant response rating, Barnyardgrass [1, 13]: 90 | Plant response rating, Barnyardgrass [1, 14]: 30 | Plant response rating, Barnyardgrass [1, 15]: 60 | Corn plant response rating (corn (Zea mays); [20]): 0 | Plant response rating, Corn (corn (Zea mays); [13]): 10 | Plant response rating, Corn (corn (Zea mays); [14]): 0 | Plant response rating, Corn (corn (Zea mays); [15]): 0 | Foxtail, Giant plant response rating [2, 20]: 30 | Plant response rating, Foxtail, Giant [2, 13]: 60 | Plant response rating, Foxtail, Giant [2, 14]: 0 | Plant response rating, Foxtail, Giant [2, 15]: 10 | Crabgrass, Large plant response rating [3, 20]: 90 | Plant response rating, Crabgrass, Large [3, 13]: 90 | Plant response rating, Crabgrass, Large [3, 14]: 50 | Plant response rating, Crabgrass, Large [3, 15]: 80 | Morningglory plant response rating [4, 20]: 80 | Plant response rating, Morningglory [4, 13]: 90 | Plant response rating, Morningglory [4, 14]: 0 | Plant response rating, Morningglory [4, 15]: 100 | Pigweed plant response rating [5, 20]: 100 | Plant response rating, Pigweed [5, 13]: 100 | Plant response rating, Pigweed [5, 14]: 80 | Plant response rating, Pigweed [5, 15]: 100 | Velvetleaf plant response rating [6, 20]: 100 | Plant response rating, Velvetleaf [6, 13]: 100 | Plant response rating, Velvetleaf [6, 14]: 80 | Plant response rating, Velvetleaf [6, 15]: 90 | Wheat plant response rating [7, 20]: 0 | Plant response rating, Wheat [7, 13]: 10 | Plant response rating, Wheat [7, 14]: 0 | Plant response rating, Wheat [7, 15]: 0 | Plant response rating, Barley [8, 21]: 0 | Plant response rating, Barley [8, 22]: 0 | Plant response rating, Barley ([8]; Postemergence, 125 g ai/ha, scale 0 to 100 (0 no effect, 100 complete control), 13 to 15 days): 0 | Barley plant response rating ([8]; Postemergence, 250 g ai/ha): 0 | Plant response rating, Flood, Barnyardgrass [9]: 0 | Plant response rating, Barnyardgrass [9, 23]: 0 | Plant response rating, Barnyardgrass [9, 24]: 0 | Plant response rating, Barnyardgrass [9, 18]: 0 | Plant response rating, Flood, Ducksalad [10]: 70 | Plant response rating, Ducksalad [10, 23]: 0 | Plant response rating, Ducksalad [10, 24]: 0 | Plant response rating, Ducksalad [10, 18]: 70 | Plant response rating, Flood, Rice (rice (Oryza sativa)): 0 | Plant response rating, Rice (rice (Oryza sativa); [23]): 0 | Plant response rating, Rice (rice (Oryza sativa); [24]): 0 | Plant response rating, Rice (rice (Oryza sativa); [18]): 0 | Plant response rating, Flood, Sedge, Umbrella [11]: 60 | Plant response rating, Sedge, Umbrella [11, 23]: 40 | Plant response rating, Sedge, Umbrella [11, 24]: 50 | Plant response rating, Sedge, Umbrella [11, 18]: 60
